According to PubChem BioAssay AID330 (DTP/NCI, 2004):
Several values for one entry are separate records, joined by “and”; a condition that tells them apart may be missing. Equal values may be shown once. Inconclusive results and toxic doses are left out.

Tested on: P388 leukemia ip, CD2F1 mice, survival T/C
Test: NCI In Vivo Anticancer Drug Screen. Data for tumor model P388 Leukemia (intraperitoneal) in CD2F1 (CDF1) mice
Conditions: endpoint: median survival time, higher = longer survival
Procedure, shortened: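 Mice carrying the transplanted tumor received test compound or vehicle. Survival was recorded in each group, and the value is the treated-group measurement divided by that of the vehicle-treated control group.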

[1] = dose: 100.0 mg/kg/injection, schedule: Q01DX001 (ip), vehicle: Klucel (hydroxypropylcellulose) (HPC)
[2] = dose: 200.0 mg/kg/injection, schedule: Q01DX001 (ip), vehicle: Klucel (hydroxypropylcellulose) (HPC)
[3] = dose: 400.0 mg/kg/injection, schedule: Q01DX001 (ip), vehicle: Klucel (hydroxypropylcellulose) (HPC)
[4] = dose: 60.0 mg/kg/injection, schedule: Q01DX005 (ip), vehicle: Klucel (hydroxypropylcellulose) (HPC)
[5] = dose: 120.0 mg/kg/injection, schedule: Q01DX005 (ip), vehicle: Klucel (hydroxypropylcellulose) (HPC)
[6] = dose: 25.0 mg/kg/injection, schedule: Q01DX009 (ip), vehicle: saline
[7] = dose: 50.0 mg/kg/injection, schedule: Q01DX009 (ip), vehicle: saline
[8] = dose: 50.0 mg/kg/injection, schedule: Q01DX005 (ip), vehicle: saline with Tween-80
[9] = dose: 100.0 mg/kg/injection, schedule: Q01DX005 (ip), vehicle: saline with Tween-80
[10] = dose: 240.0 mg/kg/injection, schedule: Q01DX005 (ip), vehicle: Klucel (hydroxypropylcellulose) (HPC)
[11] = dose: 200.0 mg/kg/injection, schedule: Q01DX005 (ip), vehicle: saline with Tween-80
[12] = dose: 60.0 mg/kg/injection, schedule: Q01DX005 (ip), vehicle: saline with Tween-80
[13] = dose: 120.0 mg/kg/injection, schedule: Q01DX005 (ip), vehicle: saline with Tween-80
[14] = dose: 240.0 mg/kg/injection, schedule: Q01DX005 (ip), vehicle: saline with Tween-80
[15] = dose: 15.0 mg/kg/injection, schedule: Q01DX005 (ip), vehicle: saline with Tween-80
[16] = dose: 30.0 mg/kg/injection, schedule: Q01DX005 (ip), vehicle: saline with Tween-80

Cc1ccc(Oc2ccc(C(=O)C(CN(C)C)CN(C)C)cc2)cc1
T/C (dose: 1.88 mg/kg/injection, schedule: Q01DX005 (ip), vehicle: saline): 107 % of control
T/C (dose: 3.75 mg/kg/injection, schedule: Q01DX005 (ip), vehicle: saline): 110 % of control
T/C (dose: 7.5 mg/kg/injection, schedule: Q01DX005 (ip), vehicle: saline): 112 % of control and 121 % of control

Cc1nc(Nc2c3ccccc3nc3ccccc23)sc1C
T/C (dose: 12.5 mg/kg/injection, schedule: Q04DX002 (ip), vehicle: distilled water + Tween-80): 103 % of control
T/C (dose: 25.0 mg/kg/injection, schedule: Q04DX002 (ip), vehicle: distilled water + Tween-80): 100 % of control
T/C (dose: 50.0 mg/kg/injection, schedule: Q04DX002 (ip), vehicle: distilled water + Tween-80): 88 % of control
T/C (dose: 100.0 mg/kg/injection, schedule: Q04DX002 (ip), vehicle: distilled water + Tween-80): 87 % of control
T/C (dose: 200.0 mg/kg/injection, schedule: Q04DX002 (ip), vehicle: distilled water + Tween-80): 90 % of control
T/C (dose: 400.0 mg/kg/injection, schedule: Q04DX002 (ip), vehicle: distilled water + Tween-80): 98 % of control

O=C(/C=C/c1ccccc1)Oc1ccccc1[N+](=O)[O-]
T/C [1]: 92 % of control
T/C [2]: 93 % of control
T/C [3]: 92 % of control

COC(=O)c1nc(N)nc(C(=O)OC)c1C(=O)c1cccc2ccccc12
T/C [4]: 99 % of control
T/C [5]: 100 % of control

CC(C)(C)c1ccc(/C=N/NC(=O)c2cccnc2)cc1
T/C (dose: 50.0 mg/kg/injection, schedule: Q01DX005 (ip), vehicle: Klucel (hydroxypropylcellulose) (HPC)): 98 % of control
T/C (dose: 100.0 mg/kg/injection, schedule: Q01DX005 (ip), vehicle: Klucel (hydroxypropylcellulose) (HPC)): 103 % of control

CCC1(CC)CCC(C(=O)OC)/C1=N\Nc1ccc([N+](=O)[O-])cc1[N+](=O)[O-] (stereo not given)
T/C [1]: 102 % of control
T/C [2]: 98 % of control
T/C [3]: 100 % of control

CCOC(=O)[C]1([Sn]([CH3])([CH3])[CH3])N=NC(C(=O)OC)=C1C(=O)OC (stereo not given)
T/C (dose: 0.78 mg/kg/injection, schedule: Q01DX009 (ip), vehicle: saline): 98 % of control
T/C (dose: 1.56 mg/kg/injection, schedule: Q01DX009 (ip), vehicle: saline): 89 % of control

O=C1CN(CN2CCOCC2)C(=O)CN1CN1CCOCC1
T/C [6]: 115 % of control
T/C [7]: 114 % of control

Cc1cc(=O)n(-c2cccc3ccccc23)c(C)c1C(=O)O
T/C [8]: 102 % of control
T/C [9]: 94 % of control

Cc1nn(C(=O)c2ccncc2)c(C)c1N=Nc1c(C)[nH]n(-c2ccccc2)c1=O
T/C (dose: 100.0 mg/kg/injection, schedule: Q04DX003 (ip), vehicle: Klucel (hydroxypropylcellulose) (HPC)): 95 % of control
T/C (dose: 200.0 mg/kg/injection, schedule: Q04DX003 (ip), vehicle: Klucel (hydroxypropylcellulose) (HPC)): 102 % of control
T/C (dose: 400.0 mg/kg/injection, schedule: Q04DX003 (ip), vehicle: Klucel (hydroxypropylcellulose) (HPC)): 101 % of control

NC(=O)c1ccc2c3c(ccc(C(N)=O)c13)CC2
T/C [4]: 102 % of control
T/C [5]: 109 % of control
T/C [10]: 109 % of control

COc1cc(C/C(=C\c2ccc(OC)c(OCc3ccccc3)c2)[N+](=O)[O-])ccc1OCc1ccccc1
T/C (dose: 9.38 mg/kg/injection, schedule: Q04DX003 (ip), vehicle: Klucel (hydroxypropylcellulose) (HPC)): 100 % of control
T/C (dose: 18.75 mg/kg/injection, schedule: Q04DX003 (ip), vehicle: Klucel (hydroxypropylcellulose) (HPC)): 100 % of control
T/C (dose: 37.5 mg/kg/injection, schedule: Q04DX003 (ip), vehicle: Klucel (hydroxypropylcellulose) (HPC)): 100 % of control

Oc1cc2c(cc1C(c1ccc3c(c1)OCO3)N1CCCC1)OCO2 (stereo not given)
T/C [4]: 109 % of control
T/C [5]: 110 % of control
T/C [10]: 112 % of control

N#Cc1cccc(C(N)=O)c1C(N)=O
T/C [8]: 104 % of control
T/C [9]: 98 % of control
T/C [11]: 95 % of control

CC1(C)c2cccc(O)c2C(=O)C2C(O)=C3C(O)=C(C(N)=O)C(=O)CC3C(O)C21 (stereo not given)
T/C [12]: 109 % of control
T/C [13]: 111 % of control
T/C [14]: 121 % of control

C=C[C@]1(C)C[C@@H](OC(=O)CO)[C@@]2(C)[C@H](C)CC[C@]3(CCC(=O)[C@H]32)[C@@H](C)[C@@H]1O
T/C (dose: 12.5 mg/kg/injection, schedule: Q01DX009 (ip), vehicle: Klucel (hydroxypropylcellulose) (HPC)): 101 % of control
T/C (dose: 25.0 mg/kg/injection, schedule: Q01DX009 (ip), vehicle: Klucel (hydroxypropylcellulose) (HPC)): 97 % of control
T/C (dose: 50.0 mg/kg/injection, schedule: Q01DX009 (ip), vehicle: Klucel (hydroxypropylcellulose) (HPC)): 101 % of control and 108 % of control and 94 % of control
T/C (dose: 150.0 mg/kg/injection, schedule: Q01DX009 (ip), vehicle: Klucel (hydroxypropylcellulose) (HPC)): 100 % of control and 95 % of control
T/C (dose: 200.0 mg/kg/injection, schedule: Q01DX009 (ip), vehicle: Klucel (hydroxypropylcellulose) (HPC)): 104 % of control and 107 % of control
T/C (dose: 400.0 mg/kg/injection, schedule: Q01DX009 (ip), vehicle: Klucel (hydroxypropylcellulose) (HPC)): 107 % of control

N#Cc1c(-c2ccccc2)cn2c1[nH]c(=O)c1c3c(sc12)CCCC3
T/C [12]: 88 % of control and 89 % of control
T/C [13]: 87 % of control
T/C [14]: 86 % of control and 87 % of control

CN(C)CCCN1c2ccccc2Sc2ccc3ccccc3c21
T/C [8]: 104 % of control
T/C [9]: 102 % of control
T/C [11]: 104 % of control

NC(=S)N/N=C\C(=O)c1cccc(O)c1
T/C (dose: 50.0 mg/kg/injection, schedule: Q01DX009 (ip), vehicle: saline with Tween-80): 99 % of control
T/C (dose: 100.0 mg/kg/injection, schedule: Q01DX009 (ip), vehicle: saline with Tween-80): 100 % of control
T/C (dose: 200.0 mg/kg/injection, schedule: Q01DX009 (ip), vehicle: saline with Tween-80): 105 % of control

CCOC(=O)C(C(C)=O)C(c1cc(OC)c(OC)c(OC)c1)c1cc2c(cc1O)OCO2 (stereo not given)
T/C [15]: 95 % of control
T/C [16]: 90 % of control
T/C [12]: 89 % of control and 92 % of control
T/C [13]: 100 % of control and 93 % of control

CN(C)CCCNc1c2ccccc2nc2cc([N+](=O)[O-])ccc12
T/C (dose: 0.1 mg/kg/injection, schedule: Q01DX009 (ip), vehicle: water): 103 % of control
T/C (dose: 0.2 mg/kg/injection, schedule: Q01DX009 (ip), vehicle: water): 104 % of control
T/C (dose: 0.39 mg/kg/injection, schedule: Q01DX009 (ip), vehicle: water): 100 % of control
T/C (dose: 0.78 mg/kg/injection, schedule: Q01DX009 (ip), vehicle: water): 100 % of control and 117 % of control
T/C (dose: 1.56 mg/kg/injection, schedule: Q01DX009 (ip), vehicle: water): 102 % of control and 108 % of control
T/C (dose: 3.13 mg/kg/injection, schedule: Q01DX009 (ip), vehicle: water): 123 % of control
T/C (dose: 6.25 mg/kg/injection, schedule: Q01DX009 (ip), vehicle: water): 95 % of control

CC1=NN(c2ccc(Cl)cc2)C(=O)/C1=C\c1c(C)[nH]n(-c2ccc(Cl)cc2)c1=O
T/C [8]: 110 % of control
T/C [9]: 101 % of control
T/C [11]: 96 % of control

O=C(Nc1ccc(N(CCCl)CCCl)cc1)Oc1ccc(C(=O)O)cc1
T/C (dose: 6.25 mg/kg/injection, schedule: Q01DX009 (ip), vehicle: saline with Tween-80): 179 % of control and 193 % of control
T/C (dose: 12.5 mg/kg/injection, schedule: Q01DX009 (ip), vehicle: saline with Tween-80): 185 % of control and 189 % of control
T/C (dose: 25.0 mg/kg/injection, schedule: Q01DX009 (ip), vehicle: saline with Tween-80): 106 % of control

CCn1cc(C(=O)O)c(=O)c2nc(S(C)=O)sc21 (stereo not given)
T/C [15]: 103 % of control
T/C [16]: 108 % of control
T/C [12]: 123 % of control and 97 % of control

CCCS(=O)(=O)Nc1ccc(Nc2c3ccccc3nc3ccccc23)c(OC)c1
T/C (dose: 6.25 mg/kg/injection, schedule: Q01DX009 (ip), vehicle: saline): 118 % of control
T/C [6]: 150 % of control and 160 % of control
T/C [7]: 150 % of control

C/C=C(\C)C(=O)OC1C(C)=C2C(C1OC(=O)CCCCC)C(C)(OC(C)=O)CC(OC(=O)CCC)C1(O)C2OC(=O)C1(C)O (stereo not given)
T/C (dose: 0.25 mg/kg/injection, schedule: Q01DX005 (ip), vehicle: Klucel (hydroxypropylcellulose) (HPC)): 105 % of control
T/C (dose: 0.5 mg/kg/injection, schedule: Q01DX005 (ip), vehicle: Klucel (hydroxypropylcellulose) (HPC)): 99 % of control and 123 % of control
T/C (dose: 1.0 mg/kg/injection, schedule: Q01DX005 (ip), vehicle: Klucel (hydroxypropylcellulose) (HPC)): 105 % of control
T/C (dose: 2.0 mg/kg/injection, schedule: Q01DX005 (ip), vehicle: Klucel (hydroxypropylcellulose) (HPC)): 106 % of control
